Data set [1] is described as follows: method code SF-AS, from Lippold, B.; Lichey, J. (1984). Transport of drugs through lipophilic polymer membranes. II. Influence of the partition and diffusion coefficients. Acta pharmaceutica technologica, 30(2)140-154.
Data set [2] is described as follows: method code SF-HPLC, from Yu, G.; Xu, X. (1993). Determination of the 1-octanol/water partition coefficient of nitro-PAHs. Huanjing Huaxue, 12(4)299-303.
Data set [3] can be described thus: method code SF-AS, from DOI: 10.1007/bf02273190.
Data set [4] is described as follows: method code SF, from DOI: 10.1016/j.bcp.2004.09.021, PMID: 15627482. Conditions: pH 7.0.
A short description of data set [5]: method code SF, from DOI: 10.1038/bjc.1982.190, PMID: 7150475.
A short description of data set [6]: method code SF, from DOI: 10.1023/a:1012119527214, PMID: 9453056. Conditions: pH 12.5.
The nature of data set [7]: method code SF-RC, from DOI: 10.1002/syn.20147. To be noted: pH 7.4.
Data set [8] in a line: method code SF-AS, from DOI: 10.1021/acs.inorgchem.5b01238, PMID: 26280387.
Data set [9] can be described thus: method code SF-HPLC, from DOI: 10.1016/0168-3659(92)90067-2.
A short description of data set [10]: method code SF-AS/HPLC, from Ellington, J. J. (1988). Octanol/water partition coefficients for evaluation of hazardous waste land disposal: Selected chemicals. US Environmental Protection Agency, Environmental Research ….
Experiment in data set [11]: not given
The source holds these as a separate data set.

Data set [12] is described as follows: method code SF-HPLC, from DOI: 10.1016/0006-2952(94)90540-1, PMID: 8185676.
Experiment in data set [13]: not given
This is another data set of the same source.

Data set [14] in a line: method code SF-GLC, from DOI: 10.1016/j.chemosphere.2005.05.003, PMID: 15967478.
Data set [15] in a line: method code SF-HPLC, from DOI: 10.1248/cpb.37.2861, PMID: 2611948. Conditions: pH 4.0.
A short description of data set [16]: method code SF-HPLC, from DOI: 10.1006/pest.1998.2384.
Data set [17] in a line: method code SF-AS, from DOI: 10.1016/0006-2952(81)90362-2, PMID: 7271838. Conditions: pH 7.5.
Data set [18] can be described thus: method code SF-AS, from DOI: 10.1021/jm00051a006, PMID: 7996541.
Data set [19] can be described thus: method code SF-RC, from DOI: 10.1016/j.apradiso.2010.08.010, PMID: 20843697. Conditions: pH 7.4.
Data set [20] is described as follows: method code SF-HPLC, from DOI: 10.1016/j.ejps.2015.05.008, PMID: 25968358. To be noted: pH 7.4.
The nature of data set [21]: method code SF-AS, from DOI: 10.1211/0022357011776199, PMID: 11428660. To be noted: pH 7.4.
Experiment in data set [22]: not given
The source holds these as a separate data set.

Experiment in data set [23]: not given
This is another data set of the same source.

Experiment in data set [24]: not given
This is another data set of the same source.

The nature of data set [25]: method code SF-RC, from DOI: 10.1016/s0969-8051(00)00080-9, PMID: 10832080. To be noted: pH 13.0.
The nature of data set [26]: method code SF-HPLC, from DOI: 10.1016/0378-5173(90)90184-6. To be noted: pH 4.0.
Data set [27] is described as follows: method code SF-AS, from DOI: 10.1016/s0003-2670(01)80868-0.
Data set [28] in a line: method code SF-AS, from DOI: 10.1016/0300-483x(85)90004-6, PMID: 4024126.
A short description of data set [29]: method code SF-GLC, from DOI: 10.1021/jm00366a019, PMID: 6644745.
Experiment in data set [30]: not given
The source holds these as a separate data set.

A short description of data set [31]: method code SF-RC, from DOI: 10.1002/jlcr.2580210110. Conditions: pH 7.4.

Take `CCCCNC(=O)NS(=O)(=O)c1ccc(N)cc1`: the logP in data set [1] was 1.18.

In data set [2], `O=[N+]([O-])c1ccc(-c2ccc([N+](=O)[O-])cc2)cc1` returned a logP of 3.2. Turning to `Brc1ccc(-c2ccccc2)c(Br)c1`, the logP came to 5.53. `CCC(=O)N(C)c1ccc(S(=O)(=O)N(C)C)cc1` displayed a logP in data set [3] of 0.71. As usually defined, the logD is the decadic logarithm of the distribution of all forms, ionised or not, between an organic phase and buffer at a given pH. Read a low logD as a more hydrophilic compound. `CCCCC1(C(=O)OCCC)CCC=[N+]1[O-]` (configuration not stated) returned a logD in data set [4] of 1.16.

For `O=[N+]([O-])c1nccn1CC(O)CN1CCCCC1` (configuration not stated), the logP in [5] worked out at 0.93. `Cc1cccc(C)c1NC(=O)CN(C)C` showed a logD in data set [6] of 1.23.

As for `N#Cc1cc(F)cc(C#Cc2ccccn2)c1`, the logD in data set [7] is 2.8. As for `CCSC(=S)C=C(O)c1ccccc1`, the logP in data set [8] came to 1.93.

The compound `COc1ccc(C[C@H](NC(C)=O)C(=O)N[C@H](Cc2ccc(OC)cc2)C(N)=O)cc1` came in with a logP in data set [9] of 1.19.

As to `CC(C)N(C(=O)SC/C(Cl)=C/Cl)C(C)C`, the logP in data set [10] worked out at 4.49.

In turn, `CCSC(=S)C=C(O)c1ccc(O)cc1` came in with a logP in [8] of 1.97. On to `COC(C)(C(=O)O)c1ccc2ccccc2c1` (configuration not stated), for which, in data set [11], the logP amounted to 3.18.

As to `CC[C@]1(Cl)C(=O)NC(=O)N([C@H]2C[C@H](O)[C@@H](CO)O2)[C@@H]1OC`, the logP in [12] is 0.4. In the case of `CCN(CC)CC(=O)NCC(=O)Nc1c(C)cccc1C`, the pH-dependent lipophilicity (logD) in [6] is 2.2. In turn, `CC(=O)NC(Cc1ccc(O)cc1)C(N)=O` (configuration not stated) registered a logP in data set [9] of -0.7.

Consider `CC[C@@]1(Br)C(=O)NC(=O)N([C@H]2C[C@H](O)[C@@H](CO)O2)[C@H]1OC`, for which the logP in [12] was 0.4.

`CC(C1=C(CCN(C)C)Cc2ccccc21)c1ccccn1` (configuration not stated) displayed a logP in data set [1] of 2.7.

Turning to `COP(=O)(OC)O/C(C)=C/C(=O)OC(C)c1ccccc1` (configuration not stated), the logP in data set [13] was determined as 3. Turning to `C=C1CCC2CC1C2(C)C` (configuration not stated), the logP in data set [14] was determined as 4.43.

In the case of `COc1ccc(Cn2cc(F)c(=O)[nH]c2=O)cc1`, the logD in data set [15] came to 1.04.

The compound `O=C(O)c1ccc2ccccc2c1` came in with a logP in data set [11] of 3.1. `C=CCN1CCN(Cc2ccc(Cl)nc2)C1=N[N+](=O)[O-]` registered a logP in data set [16] of 0.51. `CCCCOC(=O)c1ccc(N)cc1` showed a logD in data set [17] of 3.05. Take `CO[C@H]1N([C@H]2C[C@H](N=[N+]=[N-])[C@@H](CO)O2)C(=O)NC(=O)[C@@]1(C)Cl`: in data set [18], the logP turned out to be 0.52. The compound `O=C(NCCN1C(=O)C=CC1=O)c1cccc(I)c1` displayed a logD in data set [19] of 1.03. In [20], `CCCCC(=O)c1ccccc1` gave a logD of 3.03. `CCN(CC)CC(=O)OCCn1c([N+](=O)[O-])cnc1C` showed a logD in [21] of 0.03.

For `CN(C)CCSCc1ccccc1`, the logP in data set [22] was 1.81. Turning to `CO[C@@H]1N([C@H]2C[C@H](N=[N+]=[N-])[C@@H](CO)O2)C(=O)NC(=O)[C@@]1(C)Br`, the logP in data set [18] turned out to be 1.22. Compound `O=[N+]([O-])c1ccc2c(c1)Cc1ccccc1-2` registered a logP in data set [2] of 3.99. In [17], `CCCCOC(=O)c1ccc(O)cc1` had a logD of 3.32.

Turning to `CCCCOCC(O)Cn1ccnc1[N+](=O)[O-]` (configuration not stated), in data set [5] (pH 7.4), the logD turned out to be 1.11. As for `O=C(NCCN1C(=O)C=CC1=O)c1cncc(I)c1`, the logD in data set [19] came to 0.63.

Compound `CN(C)c1nc(=O)n(C2CCCCC2)c(=O)n1C` showed a logP in data set [23] of 1.85.

Take `Clc1cc(Cl)c2oc3c(Cl)c(Cl)c(Cl)c(Cl)c3c2c1Cl`: the logP in data set [24] turned out to be 7.93.

In [25], `CN1C2CCC1C(c1ccccn1)C2` (configuration not stated) returned a logD of 1.34. Compound `ClC1=C(Cl)C2(Cl)C3C4C=CC(C4)C3C1(Cl)C2(Cl)Cl` (configuration not stated) gave a logP in data set [13] of 5.67. `CCCCCCCCNC(=O)n1cc(F)c(=O)[nH]c1=O`: the logD in data set [26] amounted to 3.9. Compound `CCCCC1(C(=O)OC(C)CC)CCC=[N+]1[O-]` (configuration not stated) gave a logD in data set [4] of 1.59.

In [26], `CCCCCCNC(=O)n1cc(F)c(=O)[nH]c1=O` had a logD of 2.63. On to `CCCCC(=O)CC(=O)CCCC`, for which the logP in data set [27] is 3.56. As to `CC(=O)c1ccc(N2C(=O)CCC2=O)cc1`, the logP in data set [28] amounted to 1.37.

Compound `CNC1CC2c3ccccc3C1C2O` (configuration not stated) came in with a logD in data set [29] (pH 13.0) of 0.91. In the case of `Brc1cccc(-c2cc(Br)ccc2Br)c1`, the logP is 6.2. Compound `CCCCCC(=O)CC(=O)CCCCC` yielded a logP in [27] of 4.88. As to `CN(C)Cc1ccc(CSCCNc2[nH]ccc2[N+](=O)[O-])o1`, in data set [30], the logP was determined as 1.64. In turn, `C#CCN1CCN(Cc2ccc(Cl)nc2)C1=N[N+](=O)[O-]` returned a logP in data set [16] of 0.29. As for `Cc1ncc([N+](=O)[O-])n1CCOC(=O)CN1CCOCC1`, the logD in [21] stood at 0.27. In the case of `c1ccc2c(c1)Nc1ccccc1S2`, the logD in data set [20] turned out to be 3.97.

Compound `CCN/C(=N/C#N)NCCSCc1ncccc1Br` registered a logP in [30] of 1.98. On to `CN1C2CCC1C(c1cccnc1)C2` (configuration not stated), for which the logD in data set [25] worked out at 1.65. `Cc1ccc(Cn2cc(F)c(=O)[nH]c2=O)cc1`: in [15], the log distribution coefficient (logD) turned out to be 1.5. As for `Clc1cc2c(oc3c(Cl)cc(Cl)c(Cl)c32)c(Cl)c1Cl`, in [24], the logP is 7.51. `C#CC(C)(C)NC(=O)c1cc(Cl)cc(Cl)c1` displayed a logP in data set [10] of 3.43. As for `CCSc1nc(NC(C)C)nc(NC(C)C)n1`, the logP in data set [23] turned out to be 3.81. For the compound `CC(=O)N(C)c1ccc(S(=O)(=O)N(C)C)cc1`, in data set [3], the logP was found to be 0.23. `CN1C[C@@H](N)C[C@@H]2c3cccc4[nH]cc(c34)C[C@H]21`: in data set [22], the logP came to 0.4. As to `N[C@@H]1C[C@@H]2C[C@H]1c1ccc(C(F)(F)F)cc12`, the logD in data set [29] (pH 12.0) is 3.21.

With `FC(F)(c1ccccc1)C(F)(F)c1ccccc1`, the logD in [31] was 5. Turning to `C=C1C=CC(C(C)C)CC1` (configuration not stated), the logP in [14] turned out to be 4.59. `CC(C)(C)c1ccc(N2C(=O)CCC2=O)cc1` had a logP in data set [28] of 0.67.
